The source of these data is patent US20230295152A1 (SENDA BIOSCIENCES, INC., priority 2019, published 2023).

The structures appear in SMILES notation. Like-named read-outs stand apart in the source and are kept apart here. A value given as a limit tells only on which side of the number the result lay.

Data set [1] can be described thus: Hepatocyte Stability Assay, mouse. Further: tested at 1 µM. Format: in vitro ADME. The note with it: mouse hepatocytes. The procedure: Example 7: Hepatocyte Stability Assay
• Preparation of working solutions: 10 mM stock solutions of test compound and positive control were prepared in DMSO. In separate conical tubes, the 10 mM solution of test compound and the positive control were diluted to 100 μM by combining 198 μL of 50% acetonitrile/50% water and 2 μL of 10 mM stock.
Data Analysis: All calculations were carried out using Microsoft Excel. Peak areas were determined from extracted ion chromatograms. In vitro half-life (t1/2) of parent compound was determined by regression analysis of the percent parent disappearance vs. time curve.
The in vitro half-life (in vitro t1/2) was determined from the slope value:
Conversion of the in vitro t1/2 (in min) into the in vitro intrinsic clearance (in vitro CLint, in μL/min/1×10^6 cells) was done using the following equation (mean of duplicate determinations):
V=incubation volume(0.2 mL);
N=number of hepatocytes per well(0.1×10^6 cells).

Data set [2] in a line: Caco-2 Permeability Assay. Format: in vitro ADME. The following applies: human; for Papp A→B at 2 h, 1 μM: Caco-2, pH 7.4, apical to basolateral, read-out: Caco2 Papp (AB); for Papp B→A at 2 h, 1 μM: Caco-2, pH 7.4, basolateral to apical, read-out: Caco2 Papp (BA). The procedure: Preparation of Caco-2 Cells: 50 μL and 25 mL of cell culture medium were added to each well of the Transwell insert and reservoir, respectively. The HTS transwell plates were incubated at 37° C., 5% CO2 for 1 hour before cell seeding. Caco-2 cells were diluted to 6.86×10^5 cells/mL with culture medium and 50 μL of cell suspension were dispensed into the filter well of the 96-well HTS Transwell plate. Cells were cultivated for 14-18 days in a cell culture incubator at 37° C., 5% CO2, 95% relative humidity. Cell culture medium was replaced every other day, beginning no later than 24 hours after initial plating.
Assessment of Cell Monolayer Integrity: Medium was removed from the reservoir and each Transwell insert and replaced with prewarmed fresh culture medium. Transepithelial electrical resistance (TEER) across the monolayer was measured using Millicell Epithelial Volt-Ohm measuring system (Millipore, USA). The Plate was returned to the incubator once the measurement was done. The TEER value was calculated according to the following equation:
TEER measurement(ohms)×Area of membrane(cm^2)=TEER value(ohm·cm^2)
TEER value should be greater than 230 ohm·cm^2, which indicates the well-qualified Caco-2 monolayer.
Preparation of Solutions: 2 mM stock solutions in DMSO of control compounds were prepared and diluted with HBSS (10 mM HEPES, pH 7.4) to get 10 μM working solution. 0.2 mM stock solutions of test compounds in DMSO were prepared and diluted with HBSS (10 mM HEPES, pH 7.4 with 0.5% BSA) to get 1 μM working solution. Metoprolol, erythromycin and cimetidine were used as control compounds.
Performing the Drug Transport Assay: The Caco-2 plate was removed from the incubator. The monolayer was washed twice with pre-warmed HBSS (10 mM HEPES, pH 7.4). The plate was incubated at 37° C. for 30 minutes. To determine the rate of drug transport in the apical to basolateral direction, 125 μL of the working solution was added to the Transwell insert (apical compartment). A 50 μL sample was transferred immediately from the apical compartment to 200 μL of acetonitrile containing IS (100 nM alprazolam, 200 nM Caffeine and 100 nM tolbutamide) in a new 96-well plate as the initial donor sample (A-B) and it was vortexed at 1000 rpm for 10 minutes. The wells in the receiver plate (basolateral compartment) were filled with 235 μL of transport buffer. To determine the rate of drug transport in the basolateral to apical direction, 285 μL of the working solution were added to the receiver plate wells (basolateral compartment). A 50 μL sample was transferred immediately from the basolateral compartment to 200 μL of acetonitrile containing IS (100 nM alprazolam, 200 nM Caffeine and 100 nM tolbutamide) in a new 96-well plate as the initial donor sample (B-A) and it was vortexed at 1000 rpm for 10 minutes. The Transwell insert (apical compartment) was filled with 75 μL of transport buffer. The apical to basolateral direction and the basolateral to apical direction need to be done at the same time. The plates were incubated at 37° C. for 2 hours. At the end of the incubation, 50 μL samples from donor sides (apical compartment for Ap→B1 flux, and basolateral compartment for B1→Ap) and receiver sides (basolateral compartment for Ap→B1 flux, and apical compartment for B1→Ap) were transferred to wells of a new 96-well plate, followed by the addition of 4 volume of acetonitrile containing IS (100 nM alprazolam, 200 nM Caffeine and 100 nM tolbutamide). Samples were vortexed for 10 minutes, 50 μL samples were transferred to wells of a new 96-well plate, followed by the addition of 50 μL Hepes and 200 μL IS. A11 samples were vortexed for 10 minutes, and then centrifuged at 3,220 g for 40 minutes. An aliquot of 150 μL of the supernatant was mixed with an appropriate volume of ultra-pure water before LC-MS/MS analysis.
Data analysis: All calculations were carried out using Microsoft Excel. Peak areas were determined from extracted ion chromatograms. […]

Data set [3] can be described thus: In vivo PK study in male Sprague Dawley rats. The following applies: rats; for C0 / AUC(0-inf) / AUC(0-t) / half-life / Cmax / Tmax / bioavailability: male, Sprague Dawley, rat, plasma; for AUC(0-inf): read-out: AUCInf Mean; for AUC(0-t): read-out: AUCLast Mean; for half-life: read-out: T1/2 Mean (converted); for bioavailability: read-out: Bioavailability. As to the method: (§1) The studies were conducted in male Sprague Dawley rats, three rats per group, or male CD1 mice, three mice per group. Compounds were dosed 1.0 mg/Kg i.v. (vehicle ethanol: % PEG400 in deionized water, in proportions suitable for dosing a clear solution) and 3.0 mg/kg or 10 mg/kg p.o. (vehicle: 1% methyl cellulose: 1,500 cP in DI water (w/v)). A11 animals had free access to food and water. Rat i.v. PK time points: Plasma: 0.083, 0.25, 0.5, 1, 2, 4, 8 and 24 h; Rat p.o. PK time points: Plasma: 0.25, 0.5, 1, 2, 4, 8 and 24 h. Mouse i.v. PK time points: Plasma: 0.083, 0.25, 0.5, 1, 2, 4, 8, 24, and 48 h; Mouse p.o. PK time points: Plasma: 0.25, 0.5, 1, 2, 4, 8, 24, and 48 h. Concentrations of compound in the plasma samples were analyzed using a LC-MS/MS method. WinNonlin (Phoenix™, version 6.1) or other similar software was used for pharmacokinetic calculations.

Data set [4] in a line: In vivo PK study in male CD1 mice. The note with it: mice; for AUC(0-t): read-out: AUCLast Mean. The procedure: as §1
Setting [5] is: male, CD1, mouse, plasma, 1 mg/kg IV.
[6] abbreviates: male, CD1, mouse, plasma, 10 mg/kg PO.

As for `O=c1c2cc(-c3ccc(Cl)cc3)nc(-c3cccnc3)c2ncn1C[C@@H](O)C(F)(F)F` (single isomer, unassigned) [185 enantiomer 1], the Mouse hepatocyte clearance entry in data set [1] is “+ (“+” indicates an CLint above 50 mL/min/Kg)”.

Turning to `O=c1c2cc(-c3ccc(Cl)cc3)nc(-c3cccnc3)c2ncn1C[C@H](O)C(F)(F)F` (single isomer, unassigned) [185 enantiomer 2], the Mouse hepatocyte clearance entry in data set [1] is on record as “+ (“+” indicates an CLint above 50 mL/min/Kg)”.

Consider `C[C@@H](CO)n1cnc2c(-c3cncc(F)c3)nc(-c3ccc(OC(F)(F)F)cc3)cc2c1=O` [Compound 1, (S)-8-(5-fluoropyridin-3-yl)-3-(1-hydroxypropan-2-yl)-6-(4-(trifluoromethoxy)phenyl)pyrido[3,4-d]pyrimidin-4(3H)-one], for which, in data set [2], the Papp A→B at 2 h, 1 μM lay in the range of 2 to 10 ×10⁻⁶ cm/s and the Papp B→A at 2 h, 1 μM is under 2 ×10⁻⁶ cm/s.

As for `C[C@@H](CO)n1cnc2c(-c3cccc(F)c3)nc(-c3ccc(C(F)(F)F)nc3)cc2c1=O` [Compound 8], in data set [2], the Papp A→B at 2 h, 1 μM was 2 to 10 ×10⁻⁶ cm/s and the Papp B→A at 2 h, 1 μM lay in the range of 2 to 10 ×10⁻⁶ cm/s.

Consider `C[C@@H](CO)n1cnc2c(-c3cccnc3)nc(-c3ccc(C(F)(F)F)nc3)cc2c1=O` [Compound 12], for which the Mouse hepatocyte clearance entry in data set [1] was “++ (“++” indicates a CLint between 20 and 50 mL/min/Kg)”. Also, in data set [2], the Papp A→B at 2 h, 1 μM fell in the range of 2 to 10 ×10⁻⁶ cm/s and the Papp B→A at 2 h, 1 μM was over 10 ×10⁻⁶ cm/s.

Turning to `CC(C)(O)Cn1cnc2c(-c3cccnc3)nc(-c3ccc(C(F)(F)F)cc3)cc2c1=O` [Compound 16], the Mouse hepatocyte clearance entry in data set [1] is “++ (“++” indicates a CLint between 20 and 50 mL/min/Kg)”. Besides, in data set [2], the Papp A→B at 2 h, 1 μM is 2 to 10 ×10⁻⁶ cm/s and the Papp B→A at 2 h, 1 μM fell in the range of 2 to 10 ×10⁻⁶ cm/s.

For the molecule `C[C@@H](CO)n1cnc2c(-c3cnn(C)c3)nc(-c3ccc(Cl)cc3)cc2c1=O` [Compound 27], in data set [2], the Papp A→B at 2 h, 1 μM lay within 2 to 10 ×10⁻⁶ cm/s and the Papp B→A at 2 h, 1 μM was under 2 ×10⁻⁶ cm/s.

Regarding `C[C@@H](n1cnc2c(-c3cnn(C)c3)nc(-c3ccc(Cl)cc3)cc2c1=O)C(C)(C)O` [Compound 31], in data set [2], the Papp A→B at 2 h, 1 μM is 2 to 10 ×10⁻⁶ cm/s and the Papp B→A at 2 h, 1 μM is under 2 ×10⁻⁶ cm/s.

As to `C[C@@H](n1cnc2c(-c3cccnc3)nc(-c3ccc(Cl)cc3)cc2c1=O)C(C)(C)O` [Compound 33], in data set [2], the Papp A→B at 2 h, 1 μM was 2 to 10 ×10⁻⁶ cm/s and the Papp B→A at 2 h, 1 μM was in the range of 2 to 10 ×10⁻⁶ cm/s.

For `C[C@H](n1cnc2c(-c3cccnc3)nc(-c3cccnc3)cc2c1=O)C(C)(C)O` [Compound 34], in data set [2], the Papp A→B at 2 h, 1 μM lay in the range of 2 to 10 ×10⁻⁶ cm/s and the Papp B→A at 2 h, 1 μM is over 10 ×10⁻⁶ cm/s.

For `C[C@@H](CO)n1cnc2c(-n3ccnc3)nc(-c3ccc(OC(F)(F)F)cc3)cc2c1=O` [Compound 44, (S)-3-(1-hydroxypropan-2-yl)-8-(1H-imidazol-1-yl)-6-(4-(trifluoromethoxy)-phenyl)pyrido[3,4-d]pyrimidin-4(3H)-one], in data set [2], the Papp A→B at 2 h, 1 μM fell in the range of 2 to 10 ×10⁻⁶ cm/s and the Papp B→A at 2 h, 1 μM lay in the range of 2 to 10 ×10⁻⁶ cm/s.

In the case of `C[C@@H](CO)n1cnc2c(-c3cccc(F)c3)nc(-c3ccc(C(F)(F)F)cn3)cc2c1=O` [Compound 47, (S)-8-(3-fluorophenyl)-3-(1-hydroxypropan-2-yl)-6-(5-(trifluoromethyl)pyridin-2-yl)pyrido[3,4-d]pyrimidin-4(3H)-one], in data set [2], the Papp A→B at 2 h, 1 μM is under 2 ×10⁻⁶ cm/s and the Papp B→A at 2 h, 1 μM is under 2 ×10⁻⁶ cm/s.

Turning to `C[C@@H](CO)n1cnc2c(-c3cnsc3)nc(-c3ccc(Cl)cc3)cc2c1=O` [Compound 58], the Mouse hepatocyte clearance entry in data set [1] was “++ (“++” indicates a CLint between 20 and 50 mL/min/Kg)”.

For `O=c1c2cc(-c3ccc(C(F)(F)F)nc3)nc(-c3cccnc3)c2ncn1[C@@H]1COC[C@H]1O` [Compound 79], in data set [3] (1 mg/kg IV), the C0 is 663 ng/mL, the AUC(0-inf) worked out at 1220 ng·h/mL, the AUC(0-t) was determined as 1200 ng·h/mL and the half-life is 1.38 h. The “CI Mean” value in data set [3] (1 mg/kg IV) is 228 mL/min/kg. Moreover, in data set [3] (PO, dosage of 3 mg/kg), the peak concentration (Cmax) was 508 ng/mL, the time of peak concentration (Tmax) is 1 h, the AUC(0-inf) amounted to 2420 ng·h/mL and the AUC(0-t) was 2270 ng·h/mL. In data set [3] (PO, dosage of 3 mg/kg), the bioavailability is 65.9% and the half-life was 2.53 h.

As for `Cn1cc(-c2nc(-c3ccc(C(F)(F)F)cn3)cc3c(=O)n(CC(C)(C)O)cnc23)cn1` [Compound 103, 3-(2-hydroxy-2-methylpropyl)-8-(1-methyl-1H-pyrazol-4-yl)-6-(5-(trifluoromethyl)pyridin-2-yl)pyrido[3,4-d]pyrimidin-4(3H)-one], in data set [3] (1 mg/kg IV), the C0 was 199 ng/mL, the AUC(0-inf) is 12300 ng·h/mL, the AUC(0-t) is 2790 ng·h/mL and the half-life was 63 h. Further, in data set [3] (1 mg/kg IV), the “CI Mean” value turned out to be 26 mL/min/kg. In data set [3] (PO, dosage of 3 mg/kg), the concentration peaked (Cmax) at 40.2 ng/mL, the time to peak (Tmax) turned out to be 8 h, the AUC(0-t) amounted to 794 ng·h/mL and the bioavailability is 9.49%. In addition, in data set [2], the Papp A→B at 2 h, 1 μM fell in the range of 2 to 10 ×10⁻⁶ cm/s and the Papp B→A at 2 h, 1 μM was under 2 ×10⁻⁶ cm/s. Further, in data set [4] (setting [5]), the C0 worked out at 349 ng/mL and the AUC(0-t) stood at 10400 ng·h/mL. The half-life in data set [4] (male, CD1, mouse, plasma, 1 mg/kg IV, read-out: T1/2 Mean (converted)) is 69.5 h. For the same molecule, in data set [4] (setting [6]), the Cmax stood at 152 ng/mL, the time of peak concentration (Tmax) amounted to 13.3 h and the AUC(0-t) was found to be 6060 ng·h/mL. Moreover, in data set [4] (male, CD1, mouse, plasma, 10 mg/kg PO, read-out: Bioavailability), the bioavailability was 5.82%. The “CI Mean” value in data set [4] (1 mg/kg IV) came out at 10.7 mL/min/kg.
